From patent publication US20170057954A1, “SUBSTITUTED IMIDAZO[1,2-A]PYRIDINECARBOXAMIDES AND THEIR USE” (Bayer Pharma Aktiengesellschaft, priority 2014, published 2017)

The compounds below were run on recombinant guanylate cyclase reporter cell line (assay: Effect on a recombinant guanylate cyclase reporter cell line). Settings: in some cases mean values for individual determinations, read-out: MEC (minimum effective concentration).
Format: cell-based
Protocol: B-2. Effect on a Recombinant Guanylate Cyclase Reporter Cell Line
The cellular activity of the compounds according to the invention is determined using a recombinant guanylate cyclase reporter cell line, as described in F. Wunder et al., Anal. Biochem. 339, 104-112 (2005).
Representative MEC values (MEC=minimum effective concentration) for the compounds of the invention are shown in the table below (in some cases as mean values for individual determinations): […]

SMILES | minimal effective concentration
Cc1cc(OCc2c(F)cccc2F)c2nc(C)c(C(=O)NNC3CCCCC3)n2c1 [Example 74] | 3 µM
Cc1cc(OCc2c(F)cccc2F)c2nc(C)c(C(=O)NNC(=O)CN)n2c1 [Example 75, N′-(Aminoacetyl)-8-[(2,6-difluoroenzyl)oxy]-2,6-dimethylimidazo[1,2-a]pyridine-3-carbohydrazide] | 1 µM
Cc1cc(OCc2c(F)cccc2F)c2nc(C)c(C(=O)NNC(=O)CN3CCOCC3)n2c1 [Example 76, 8-[(2,6-Difluorobenzyl)oxy]-2,6-dimethyl-N′-(morpholin-4-ylacetyl)imidazo[1,2-a]pyridine-3-carbohydrazide] | 0.3 µM
Cc1cc(OCc2c(F)cccc2F)c2nc(C)c(C(=O)NOCC3CC3)n2c1 [Example 77, N-(Cyclopropylmethoxy)-8[(2,6-difluorobenzyl)oxy]-2,6-dimethylimidazo[1,2-a]pyridine-3-carboxamide] | 0.3 µM
Cc1cc(OCc2c(F)cccc2F)c2nc(C)c(C(=O)NN3CCC(C(F)(F)F)C3)n2c1 (stereo not shown) [Example 79, 8-[(2,6-Difluorobenzyl)oxy]-2,6-dimethyl-N-[3-(trifluoromethyl)pyrrolidin-1-yl]imidazo[1,2-a]pyridine-3-carboxamide] | 0.1 µM
Cc1cc(OCc2c(F)cccc2F)c2nc(C)c(C(=O)NNC3CCS(=O)(=O)CC3)n2c1 [Example 80, 8-[(2,6-Difluorobenzyl)oxy]-N′-(1,1-dioxidotetrahydro-2H-thiopyran-4-yl)-2,6-dimethylimidazo[1,2-a]pyridine-3-carbohydrazide] | 2 µM
Cc1cc(OCc2c(F)cccc2F)c2nc(C)c(C(=O)NOCC(F)(F)F)n2c1 [Example 81, 8-[(2,6-Difluorobenzyl)oxy]-2,6-dimethyl-N-(2,2,2-trifluoroethoxy)imidazo[1,2-a]pyridine-3-carboxamide] | 0.65 µM
